Drawing on ChEMBL document CHEMBL5625225, “Vinylphosphonate-based cyclic dinucleotides enhance STING-mediated cancer immunotherapy” (Eur J Med Chem, 2023), this text covers EC50 and ΔTm for 22 compounds.

Experiment [1] deals with T1, Stimulator of interferon genes protein (Homo sapiens, UniProt Q86WV6). Briefly: Agonist activity at STING R232 mutant (unknown origin) expressed in digitonin -permeabilized HEK293T cells preincubated for 30 mins followed by washout and measured after 5 hrs by Bright-glo luciferase assay. It is filed as cell-based.
Target sequence in this assay (Q86WV6 whole entry, looked up, stated change not applied): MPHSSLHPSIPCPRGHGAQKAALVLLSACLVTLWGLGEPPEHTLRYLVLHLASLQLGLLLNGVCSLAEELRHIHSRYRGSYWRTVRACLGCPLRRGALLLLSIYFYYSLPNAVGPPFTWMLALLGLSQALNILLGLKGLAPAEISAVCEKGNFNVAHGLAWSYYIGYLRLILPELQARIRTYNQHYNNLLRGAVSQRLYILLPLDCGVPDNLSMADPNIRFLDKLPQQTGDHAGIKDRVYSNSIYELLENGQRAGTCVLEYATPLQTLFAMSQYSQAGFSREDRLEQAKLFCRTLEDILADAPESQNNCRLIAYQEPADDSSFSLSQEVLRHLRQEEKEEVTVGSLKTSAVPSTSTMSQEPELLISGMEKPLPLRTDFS
For experiment [2], the target named is Stimulator of interferon genes protein (Homo sapiens, UniProt Q86WV6, G230A/R293Q/R71H). Kind of experiment: Agonist activity at STING R71H/G230A/R293Q mutant (unknown origin) expressed in digitonin -permeabilized HEK293T cells preincubated for 30 mins followed by washout and measured after 5 hrs by Bright-glo luciferase assay. It is filed as cell-based.
Chain of Stimulator of interferon genes protein (Homo sapiens, UniProt Q86WV6, G230A/R293Q/R71H) (Q86WV6 whole entry R71H/G230A/R293Q): as the sequence (Q86WV6 whole entry, looked up, stated change not applied) above, with R71H, G230A, R293Q counted along it
Experiment [3] can be described thus: Agonist activity at STING R232H mutant (unknown origin) expressed in digitonin -permeabilized HEK293T cells preincubated for 30 mins followed by washout and measured after 5 hrs by Bright-glo luciferase assay. The format is cell-based. The settings on record: Homo sapiens, HEK-293T.
Experiment [4] concerns the target Stimulator of interferon genes protein (Homo sapiens, UniProt Q86WV6, G230A/R293Q). Kind of experiment: Agonist activity at STING G230A/R293Q mutant (unknown origin) expressed in digitonin -permeabilized HEK293T cells preincubated for 30 mins followed by washout and measured after 5 hrs by Bright-glo luciferase assay. It is filed as cell-based.
The target in experiment [5] is Stimulator of interferon genes protein (Homo sapiens, UniProt Q86WV6, R293Q). Briefly: Agonist activity at STING R293Q mutant (unknown origin) expressed in digitonin -permeabilized HEK293T cells preincubated for 30 mins followed by washout and measured after 5 hrs by Bright-glo luciferase assay. The format is cell-based.
Chain of Stimulator of interferon genes protein (Homo sapiens, UniProt Q86WV6, R293Q) (Q86WV6 whole entry R293Q): as the sequence (Q86WV6 whole entry, looked up, stated change not applied) above, with R293Q counted along it
Experiment [6] relates to Stimulator of interferon genes protein (Homo sapiens), Q86WV6 [UNDEFINED MUTATION]. The settings on record: filed as agonist.
Chain of Stimulator of interferon genes protein (Homo sapiens), Q86WV6 [UNDEFINED MUTATION] (Q86WV6 whole entry, looked up, stated change not applied): as the sequence (Q86WV6 whole entry, looked up, stated change not applied) above
Description: Binding affinity to STING R232 mutant (unknown origin) assessed as change in melting temperature by differential scanning fluorimetry analysis
For experiment [7], the system named is Stimulator of interferon genes protein (Homo sapiens), Q86WV6 [G230A,R293Q]. The settings on record: filed as agonist.
Chain of Stimulator of interferon genes protein (Homo sapiens), Q86WV6 [G230A,R293Q] (Q86WV6 whole entry G230A/R293Q): as the sequence (Q86WV6 whole entry, looked up, stated change not applied) above, with G230A, R293Q counted along it
Description: Binding affinity to STING G230A/R293Q mutant (unknown origin) assessed as change in melting temperature by differential scanning fluorimetry analysis
Experiment [8] has as its target T1, Stimulator of interferon genes protein. Kind of experiment: Agonist activity at wild type STING (unknown origin) expressed in HEK293T cells preincubated for 30 mins followed by washout and measured after 6.5 hrs by Bright-glo luciferase assay. It is filed as cell-based.
Target sequence in this assay (Q86WV6 whole entry): as the sequence (Q86WV6 whole entry, looked up, stated change not applied) above
Experiment [9] has the same target. Briefly: Agonist activity at wild type STING (unknown origin) expressed in HEK293T cells measured after 7 hrs by Bright-glo luciferase assay. The format is cell-based.
Target sequence in this assay (Q86WV6 whole entry): as the sequence (Q86WV6 whole entry, looked up, stated change not applied) above
A short description of experiment [10]: Induction of cytokine production in human PBMC cells assessed as IFN-gamma level incubated for 60 mins followed by washout and measured after 15 hrs. The format is functional, cell-based.
Experiment [11] is described as follows: Induction of cytokine production in human PBMC cells assessed as TNF-alpha level incubated for 60 mins followed by washout and measured after 15 hrs. The format is functional, cell-based.
Experiment [12] in a line: Induction of cytokine production in human PBMC cells assessed as IFN-alpha level incubated for 60 mins followed by washout and measured after 15 hrs. It is filed as functional, cell-based.

Chain of Stimulator of interferon genes protein (Homo sapiens, UniProt Q86WV6, G230A/R293Q) (Q86WV6 whole entry G230A/R293Q): as the sequence (Q86WV6 whole entry, looked up, stated change not applied) above, with G230A, R293Q counted along it

As a reminder, the EC50 is the concentration at which the effect is half-maximal. Usually ΔTm stands for the change in melting temperature against a reference sample. Regarding `Nc1nc2c(ncn2[C@@H]2O[C@@H]3/C=C/P(=O)(O)O[C@H]4[C@@H](F)[C@H](n5cnc6c(N)ncnc65)O[C@@H]4COP(=O)(O)O[C@H]3[C@H]2F)c(=O)[nH]1`, the EC50 was 20 nM in [1]; 60 nM in [2]; 320 nM in experiment [3]; 80 nM in experiment [4]; 460 nM in experiment [5]. The results for the ΔTm in [6] and in experiment [7] were 9.4 °C and 15.2 °C, respectively.

Regarding `Nc1nc2c(ncn2[C@@H]2O[C@@H]3/C=C/P(=O)(O)O[C@H]4[C@@H](F)[C@H](n5cnc6c(=O)[nH]c(N)nc65)O[C@@H]4COP(=O)(O)O[C@H]3[C@H]2F)c(=O)[nH]1`, the EC50 in experiment [1] worked out at 500 nM; in experiment [2], 950 nM; in [3], 3690 nM; in experiment [4], 950 nM; in experiment [5] it was 8650 nM. Further, the figures for the ΔTm in [6] and in experiment [7] were 3.4 °C and 8.8 °C, respectively.

As to `Nc1nc2c(ncn2[C@H]2C[C@@H]3OP(=O)(O)/C=C/[C@H]4O[C@@H](n5cnc6c(N)ncnc65)[C@H](F)[C@@H]4OP(=O)(O)OC[C@H]3O2)c(=O)[nH]1`, the EC50 in [1] is 120 nM; in [2], 140 nM; in experiment [3], 9500 nM; in [4] it was 130 nM; in experiment [5], 2950 nM. In addition, the ΔTm in experiment [6] was determined as 5.2 °C; in experiment [7], 11.4 °C.

Take `Nc1ncnc2c1ncn2[C@@H]1O[C@@H]2COP(=O)(O)O[C@H]3C[C@H](n4cnc5c(N)ncnc54)O[C@@H]3/C=C/P(=O)(O)O[C@H]2[C@H]1F`: the concentration for a half-maximal effect (EC50) in experiment [1] was 750 nM; in [2], 280 nM; in [3], over 45000 nM; in experiment [4], 400 nM; in experiment [5] it was 6570 nM. For the same compound, the ΔTm in [6] was 2.3 °C; in [7], 8.2 °C.

On to `Nc1nc2c(ncn2[C@@H]2O[C@@H]3COP(=O)(O)O[C@H]4C[C@H](n5cnc6c(N)ncnc65)O[C@@H]4/C=C/P(=O)(O)O[C@H]3[C@H]2F)c(=O)[nH]1`, for which the EC50 was 700 nM in experiment [1]; 350 nM in experiment [2]; 25500 nM in experiment [3]; 290 nM in experiment [4]; 4150 nM in experiment [5]. Moreover, the ΔTm in experiment [6] is 4.8 °C; in experiment [7], 11.9 °C.

Consider `Nc1nc2c(ncn2[C@H]2C[C@@H]3OP(=O)(O)/C=C/[C@H]4O[C@@H](n5cnc6c(N)ncnc65)C[C@@H]4OP(=O)(O)OC[C@H]3O2)c(=O)[nH]1`, for which the EC50 in [1] is 10800 nM; in experiment [2], 240 nM; in experiment [3] it was over 45000 nM; in experiment [4] it was 390 nM; in experiment [5] it was over 45000 nM. Moreover, the ΔTm in experiment [6] stood at 0.9 °C; in [7] it was 4.5 °C.

Take `Nc1nc2c(ncn2[C@H]2C[C@@H]3OP(=O)(O)OC[C@H]4O[C@@H](n5cnc6c(N)ncnc65)C[C@@H]4OP(=O)(O)/C=C/[C@H]3O2)c(=O)[nH]1`: the EC50 in [1] is 780 nM; in [2], 440 nM; in experiment [3], over 45000 nM; in experiment [4] it was 210 nM; in experiment [5] it was over 45000 nM. Besides, the figures for the ΔTm in experiment [6] and in experiment [7] were 1.9 °C and 8.6 °C, respectively.

Regarding `Nc1ncnc2c1ncn2[C@@H]1O[C@@H]2/C=C/P(=O)(O)O[C@H]3C[C@H](n4cnc5c(N)ncnc54)O[C@@H]3COP(=O)(O)O[C@H]2[C@H]1F`, the EC50 was 280 nM in experiment [1]; 270 nM in experiment [2]; over 45000 nM in [3]; 390 nM in experiment [4]; 1500 nM in experiment [5]; over 200000 nM in experiment [8]. In experiment [9], this compound gave an EC50 of 71700 nM. Besides, the thermal shift (ΔTm) in experiment [6] was 2.7 °C; in experiment [7], 8.9 °C.

As to `CC(C)(C)C(=O)OCOP1(=O)/C=C/[C@H]2O[C@@H](n3cnc4c(N)ncnc43)[C@H](F)[C@@H]2OP(=O)(OCOC(=O)C(C)(C)C)OC[C@H]2O[C@@H](n3cnc4c(N)ncnc43)[C@H](F)[C@@H]2O1` (stereo in doubt; 11A), the EC50 came out at 130 nM in experiment [8] and 60 nM in [9].

`CC(C)(C)C(=O)OCOP1(=O)/C=C/[C@H]2O[C@@H](n3cnc4c(N)ncnc43)[C@H](F)[C@@H]2OP(=O)(OCOC(=O)C(C)(C)C)OC[C@H]2O[C@@H](n3cnc4c(N)ncnc43)[C@H](F)[C@@H]2O1` (stereo in doubt; 11B): the EC50 stood at 30 nM in experiment [8]; 22 nM in [9]; 750 nM in [10] (pbmc); 330 nM in experiment [11] (pbmc); 350 nM in experiment [12] (pbmc).

Consider `CC(C)OC(=O)OCOP1(=O)/C=C/[C@H]2O[C@@H](n3cnc4c(N)ncnc43)[C@H](F)[C@@H]2OP(=O)(OCOC(=O)OC(C)C)OC[C@H]2O[C@@H](n3cnc4c(N)ncnc43)[C@H](F)[C@@H]2O1` (stereo in doubt; 12A), for which the EC50 was 7950 nM in [8] and 9500 nM in experiment [9].

On to `CC(C)OC(=O)OCOP1(=O)/C=C/[C@H]2O[C@@H](n3cnc4c(N)ncnc43)[C@H](F)[C@@H]2OP(=O)(OCOC(=O)OC(C)C)OC[C@H]2O[C@@H](n3cnc4c(N)ncnc43)[C@H](F)[C@@H]2O1` (stereo in doubt; 12B), for which the EC50 in [8] was found to be 2630 nM; in experiment [9], 1250 nM.

On to `CC(C)OC(=O)OCOP1(=O)/C=C/[C@H]2O[C@@H](n3cnc4c(N)ncnc43)[C@H](F)[C@@H]2OP(=O)(OCOC(=O)OC(C)C)OC[C@H]2O[C@@H](n3cnc4c(N)ncnc43)[C@H](F)[C@@H]2O1` (stereo in doubt; 12C), for which the EC50 in experiment [8] amounted to 250 nM; in experiment [9], 70 nM; in [10] (Homo sapiens, PBMC), 1300 nM; in [11] (Homo sapiens, PBMC), 250 nM; in [12] (Homo sapiens, PBMC) it was 600 nM.

For `CCC(C)(C)C(=O)OCOP1(=O)/C=C/[C@H]2O[C@@H](n3cnc4c(N)ncnc43)[C@H](F)[C@@H]2OP(=O)(OCOC(=O)C(C)(C)CC)OC[C@H]2O[C@@H](n3cnc4c(N)ncnc43)[C@H](F)[C@@H]2O1` (stereo in doubt; 13A), the EC50 was determined as 450 nM in experiment [8] and 150 nM in [9].

With `CCC(C)(C)C(=O)OCOP1(=O)/C=C/[C@H]2O[C@@H](n3cnc4c(N)ncnc43)[C@H](F)[C@@H]2OP(=O)(OCOC(=O)C(C)(C)CC)OC[C@H]2O[C@@H](n3cnc4c(N)ncnc43)[C@H](F)[C@@H]2O1` (stereo in doubt; 13B), the figures for the EC50 in [8] and in [9] were 35 nM and 14 nM, respectively.

`CC1(C(=O)OCOP2(=O)/C=C/[C@H]3O[C@@H](n4cnc5c(N)ncnc54)[C@H](F)[C@@H]3OP(=O)(OCOC(=O)C3(C)CCCCC3)OC[C@H]3O[C@@H](n4cnc5c(N)ncnc54)[C@H](F)[C@@H]3O2)CCCCC1` (stereo in doubt; 14A): the EC50 in experiment [8] worked out at 500 nM; in [9], 250 nM.

Consider `CC1(C(=O)OCOP2(=O)/C=C/[C@H]3O[C@@H](n4cnc5c(N)ncnc54)[C@H](F)[C@@H]3OP(=O)(OCOC(=O)C3(C)CCCCC3)OC[C@H]3O[C@@H](n4cnc5c(N)ncnc54)[C@H](F)[C@@H]3O2)CCCCC1` (stereo in doubt; 14B), for which the EC50 in experiment [8] was 225 nM; in experiment [9], 80 nM; in experiment [10] (pbmc), 250 nM; in [11] (pbmc), 140 nM; in [12] (pbmc) it was 300 nM.

In the case of `CCCCCCCC(=O)OCOP1(=O)/C=C/[C@H]2O[C@@H](n3cnc4c(N)ncnc43)[C@H](F)[C@@H]2OP(=O)(OCOC(=O)CCCCCCC)OC[C@H]2O[C@@H](n3cnc4c(N)ncnc43)[C@H](F)[C@@H]2O1` (stereo in doubt; 15A), the EC50 in experiment [8] amounted to 350 nM; in experiment [9], 20 nM.

With `CCCCCCCC(=O)OCOP1(=O)/C=C/[C@H]2O[C@@H](n3cnc4c(N)ncnc43)[C@H](F)[C@@H]2OP(=O)(OCOC(=O)CCCCCCC)OC[C@H]2O[C@@H](n3cnc4c(N)ncnc43)[C@H](F)[C@@H]2O1` (stereo in doubt; 15B), the EC50 came to 4 nM in experiment [8]; 3 nM in experiment [9]; 60 nM in experiment [10] (pbmc); 70 nM in [11] (pbmc); 80 nM in experiment [12] (Homo sapiens, PBMC).

Regarding `CC(C)(C)C(=O)OCOP1(=O)/C=C/[C@H]2O[C@@H](n3cnc4c(N)ncnc43)C[C@@H]2OP(=O)(OCOC(=O)C(C)(C)C)OC[C@H]2O[C@@H](n3cnc4c(N)ncnc43)[C@H](F)[C@@H]2O1` (stereo in doubt; 24A), the EC50 in experiment [8] was 9930 nM; in [9], 12100 nM.

As to `CC(C)(C)C(=O)OCOP1(=O)/C=C/[C@H]2O[C@@H](n3cnc4c(N)ncnc43)C[C@@H]2OP(=O)(OCOC(=O)C(C)(C)C)OC[C@H]2O[C@@H](n3cnc4c(N)ncnc43)[C@H](F)[C@@H]2O1` (stereo in doubt; 24B), the EC50 was determined as 550 nM in [8] and 675 nM in [9].

Take `CC(C)(C)C(=O)OCOP1(=O)/C=C/[C@H]2O[C@@H](n3cnc4c(N)ncnc43)C[C@@H]2OP(=O)(OCOC(=O)C(C)(C)C)OC[C@H]2O[C@@H](n3cnc4c(N)ncnc43)[C@H](F)[C@@H]2O1` (stereo in doubt; 24C): the EC50 in [8] was 210 nM; in [9], 260 nM.
